Where a SMILES comes first, the peptide text is derived from it. [ ]: non-standard residue; d: D form. Aib = CC(C)(N)C(=O)O
What was measured:
[1] = in vitro and in vivo conditions; ref Zhang et al., 2011; cited from earlier work
Description: In recent years, pH-responsive CPPs have been developed for targeted delivery based on the pH gradient between the tumor tissues and physiological environment ([Lee, Gao & Bae, 2008]; [Shi et al., 2015]; [Jiang et al., 2012]; [Fei et al., 2014]). […] The acidic tumor microenvironment mandates the development of pH-responsive CPPs for improved s ...

mice red blood cells = conditions: mouse erythrocytes in PBS, 1 h at 37°C; maximum concentration of 200 µM; n = 3
Experimental: Fresh mouse blood was collected in heparin sodium-containing centrifuge tubes. Erythrocytes were separated by centrifugation at 800×g for 10 min and washed three times with phosphate buffered saline (PBS). Obtained erythrocytes were resuspended in PBS to 8 % (v/v). 100 µL of the peptide solution of various concentrations and 100 µL of the erythrocyte suspension were added to the wells of a 96-well plate. PBS and 0.2 % TritonX-100 were used as agents for 0 % and 100 % hemolysis, respectively. Plates were incubated for 1 h at 37°C and centrifuged at 1,200×g for 15 min. A total of 100 µL of each supernatant was transferred to a 96-well plate, and the release of hemoglobin was determined using a microplate reader at 490 nm.

HeLa cells [2] = conditions: 2 h incubation, n = 3; for LDH levels with decreasing pH: pH 7.4, 6.5, 6.0
Experimental: Membrane integrity was evaluated using the CytoTox-ONE assay. Cells were seeded at 1 ×10^4cells/well in a 96-well plate 24 h before treatment. After 2 h incubation with 100 µL serum-free medium, adjusted to pH 7.4, 6.5 or 6.0 and containing various concentrations of peptides, 40 µL of medium was transferred to a black fluorescence plate and incubated for 10 min with 40 µL of CytoTox-ONE reagent, followed by 20 µL of stop solution. Fluorescence was recorded with an excitation wavelength of 560 nm and emission wavelength of 590 nm. Untreated cells were defined as those where no leakage was observed while 100% leakage was defined as a total release of LDH due to cell lysis in 0.2% Triton X-100.

HeLa cells [3] = conditions: 2 h incubation, MTT; for cytotoxicity: pH 6.0, 20 µM; for viability of cells: pH 7.4 and pH 6.5, different concentrations
Experimental: Cytotoxicity of all peptides against HeLa cells was evaluated using the MTT assay under varying pH conditions (pH 7.4, 6.5 and 6.0). Cells were seeded at 1 × 10^4 cells/well in 96-well plates, 24 h before treatment. After washing, cells were treated with serum-free medium, adjusted to pH 7.4, 6.5 or 6.0, and containing various concentrations of peptides. After 2 h incubation, 10 µL of MTT (5 mg/mL) was added to each well and incubated for another 4 h at 37°C. Then, the medium was removed and cells were dissolved by 150 µL dimethyl sulfoxide. Absorbance was determined using a microplate reader at 490 nm. Cell viability (%) was calculated using the following equation: Atest∕Acontrol × 100%, where Atest and Acontrol represent the absorbance of cells treated with different test solutions and blank culture media, respectively.

[4] = parameters: method as in Zaro, Fei & Shen, 2012; Ouahab et al., 2014; conditions: ref Zaro, Fei & Shen, 2012; Ouahab et al., 2014; cited from earlier work
Description: However, due to the imidazole on histidine with a pKa around 6.5, histidine could protonate into a net positive charge at pH values below 6.5 ([Zaro, Fei & Shen, 2012]; [Ouahab et al., 2014]), thereby activating the membrane penetrating activity of TH and allowing its entry into the cells. However, histidine becomes relatively insensitive to the tumor extracellular environment when the pH is in the 6.5–7.2 range, thereby reducing the pH-dependent penetrating activity of TH. In order to extend the applications of acid-activated CPPs, it is necessary to improve their pH-response. The ability of ...

HeLa cells [5] = assay: Quantitative cellular uptake assay (flow cytometry) of FITC-labeled peptides; type: cell-based; conditions: 1 h; for fluorescence intensity / cellular uptake relative to TH: all pH values (7.4, 6.5, 6.0); for fluorescence intensity / cellular uptake relative to TH / pH-responsive effect (change of fluorescence from pH 7.4 to pH 6.0) relative to TH: 5 µM FITC-labeled peptide
Experimental: The cells were harvested and centrifuged at 1,000 rpm for 5 min. Subsequently, the cell pellet was suspended and washed twice with PBS and resuspended in PBS. Finally, fluorescence intensity of 10,000 cells was analyzed with an FACS caliber flow cytometer using 488-nm laser excitation.

[6] = RP-HPLC retention time on C18 column (hydrophobicity); type: physicochemical; conditions: for RP-HPLC retention times: analytical RP-HPLC, C18, sunfire column 3.9 mm × 150 mm, Waters, used as measure of hydrophobicity
Experimental: All peptides shown in Table 1 were synthesized on a MBHA (0.43mmol/g) resin using the standard Fmoc-chemistry-based strategy. Fluorescein moiety (FITC) was attached to the N-terminusvia an aminohexanoic acid spacer by treating the resin-bound peptide (0.1 mmol) with FITC (0.1 mmol) and diisopropyl ethyl amine (0.5 mmol) in DMF for 12 h. All crude peptides were purified and analyzed by reversed-phase high performance liquid chromatography (RP-HPLC) on a C18 column, and then characterized by electrospray ionization mass spectrometry (ESI-MS).
Generally, cationic CPPs can bind on the anionic membrane surfaces via electrostatic interaction and promote cellular uptake ([Poon & Gariepy, 2007]). Thus, cationic functionalityis a critical factor for cell penetration. Histidine is especially pH-responsive ([Zaro, Fei & Shen, 2012]; [Ouahab et al., 2014]). Due to the presence of an imidazole ring, it has the ability to receive protons and protonate into a positive charge in an acidic tumor environment, whereas it remains predominantly uncharged under normal physiological conditions. The pH-responsiveness of histidine has been widely utilizedin the design of pH-responsive CPPs for targeted drug delivery. The protonation ability of histidine’simidazole moiety is the key for pH-dependent cellular uptake of histidine-rich peptides. […] In this regard, this study focused on the development of new histidine analogs that enhance the protonation of histidine by introducing alkylated groups with different electron-donating ability.

HeLa cells [7] = assay: Confocal laser scanning microscopy of FITC-labeled peptides; type: cell-based; conditions: CLSM, 5 µM FITC-labeled peptide, 1 h, 37°C; for pH-responsiveness of cellular uptake: pH 7.4, 6.5, 6.0
Experimental: To obtain a direct insight into the distribution of FITC-labeled peptides in cells, HeLa cells (6 × 10^4 cells/well) were plated in a glass-bottom culture dish for 24 h and then incubated with the FITC-labeled peptides using conditions and concentrations described above. After 1 h incubation at 37°C, the cells were washed with cold PBS three times and imaged using confocal laser scanning microscopy.

Row | Compound | LDH levels with decreasing pH (HeLa cells [2]) | cytotoxicity (HeLa cells [3]) | viability of cells (HeLa cells [3]) | LDH levels at pH 6.5 and pH 6.0 relative to pH 7.4 (HeLa cells [2]) | fluorescence intensity / cellular uptake relative to TH (HeLa cells [5]) | cytotoxic variation from pH 7.4 to pH 6.0 (HeLa cells [3]) | RP-HPLC retention times [6] | pH-responsiveness of cellular uptake (HeLa cells [7]) | pH-responsive effect (change of fluorescence from pH 7.4 to pH 6.0) relative to TH (HeLa cells [5]) | also measured
1 | CC[C@H](C)[C@H](NC(=O)[C@H](Cc1c[nH]cn1)NC(=O)[C@H](Cc1c[nH]cn1)NC(=O)C(C)(C)NC(=O)[C@H](CC(C)C)NC(=O)[C@H](Cc1c[nH]cn1)NC(=O)[C@H](C)NC(=O)[C@H](CC(C)C)NC(=O)[C@H](Cc1c[nH]cn1)NC(=O)[C@H](Cc1c[nH]cn1)NC(=O)[C@H](CC(C)C)NC(=O)[C@H](CC(N)=O)NC(=O)[C@@H](NC(=O)[C@H](Cc1c[nH]cn1)NC(=O)CNC(=O)[C@H](CC(C)C)NC(=O)[C@H](CC(C)C)NC(=O)[C@H](Cc1ccc(O)cc1)NC(=O)CNC(=O)[C@H](C)N)[C@@H](C)CC)C(=O)N[C@@H](CC(C)C)C(N)=O [TH] (H-AGYLLGHINLHHLAHL[Aib]HHIL-NH2) | rose as the pH value decreased | increased | higher than 80% |  |  |  |  |  |  | toxicity compared to TK [1]: decreased; hemolytic activity (cytotoxicity against red blood cells) (mice red blood cells): little cytotoxicity against red blood cells
2 | N[C@@H](Cc1c[nH]cn1)C(=O)O [histidine] |  |  |  |  |  |  |  |  |  | pKa of the imidazole on histidine [4]: around 6.5
3 | AGYLLGHBINLHBHBLAHBL(Aib)HBHBIL-NH2 [Butyl-TH, TH analog with all histidines replaced by L-his(Butyl)] |  |  |  | comparable to that at pH 7.4 | increased remarkably | didn’t show obvious cytotoxic variation | 20.561 min | more pH-responsive at pH 6.5 |  | fluorescence intensity, fold higher than TH (HeLa cells [5]; pH 6.5, 5 µM FITC-labeled peptide, serum-free medium): approximately 1.72 fold
4 | AGYLLGHEINLHEHELAHEL(Aib)HEHEIL-NH2 [Ethyl-TH, TH analog with all histidines replaced by L-his(Ethyl)] | rose as the pH value decreased | increased | higher than 80% |  |  |  | 18.623 min | better pH-dependent cellular uptake than TH at pH 6.0 | better than TH | LDH release in comparison with TH and the other analogs (HeLa cells [2]; pH 6.0): most obvious LDH release; fluorescence intensity relative to TH (HeLa cells [5]; pH 7.4 and 6.5, 5 µM FITC-labeled peptide): lower fluorescence intensity than TH
5 | AGYLLGHIINLHIHILAHIL(Aib)HIHIIL-NH2 [Isopropyl-TH, TH analog with all histidines replaced by L-his(Isopropyl)] |  |  |  | comparable to that at pH 7.4 |  | didn’t show obvious cytotoxic variation | 19.041 min | no pH-responsive at pH 6.5 | lower than that of TH | fluorescence intensity at pH 6.5 relative to pH 7.4 (HeLa cells [7]): slightly lower than that at pH 7.4
6 | AGYLLGHMINLHMHMLAHML(Aib)HMHMIL-NH2 [Methyl-TH, TH analog with all histidines replaced by L-his(Methyl)] |  |  |  | comparable to that at pH 7.4 | reduction of cellular uptake |  | 18.058 min | poor pH-responsiveness |  | cytotoxicity at low pH (HeLa cells [3]; pH 6.5 and pH 6.0): didn’t show any significant cytotoxicity; hydrophobicity relative to TH ([6]; from retention time on the C18 reverse-phase HPLC column): less hydrophobic than TH; cellular uptake relative to TH (HeLa cells [7]; pH 6.5 and pH 6.0): lower cellular uptake than TH
